Laboratory results: PMC8066341, “Chemical Profiles, Anticancer, and Anti-Aging Activities of Essential Oils of Pluchea dioscoridis (L.) DC. and Erigeron bonariensis L” (Plants, 2021)
Values after ≈ are worked out from the molar mass of the structure shown.

Columns and labels:
[1] = molecular target: T1, Porcine pancreatic elastase (Sus scrofa, UniProt P00772); experiment: N-succinyl-Ala-Ala-Ala-p-nitroanilide hydrolysis, absorbance […] nm; format: biochemical
T1 construct: gene CELA1; native enzyme from pancreas (commercial)

[2] = molecular target: T2, Collagenase from Clostridium histolyticum (ChC); experiment: FALGPA hydrolysis, microplate absorbance; format: biochemical, Hathewaya histolytica; details: 50 mM tricine pH 7.5, 400 mM NaCl, 10 mM CaCl2; 15 min preincubation; FALGPA substrate
T2 construct: gene colG

mushroom tyrosinase = molecular target: T3, mushroom tyrosinase; experiment: dopachrome formation, absorbance […] nm; format: biochemical; details: L-tyrosine substrate (0.85 mM solution); phosphate pH 6.8; 15 min preincubation at 25 °C
T3 construct: gene PPO1

T1 sequence (P00772 27-266): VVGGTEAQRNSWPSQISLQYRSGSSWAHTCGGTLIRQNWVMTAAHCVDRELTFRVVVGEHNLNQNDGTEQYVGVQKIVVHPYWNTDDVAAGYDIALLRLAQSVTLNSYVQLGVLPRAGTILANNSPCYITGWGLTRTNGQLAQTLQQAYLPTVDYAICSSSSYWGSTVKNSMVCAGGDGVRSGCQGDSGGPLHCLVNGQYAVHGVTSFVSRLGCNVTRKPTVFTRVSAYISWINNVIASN

O=C(O[C@@H]1Cc2c(O)cc(O)cc2O[C@@H]1c1cc(O)c(O)c(O)c1)c1cc(O)c(O)c(O)c1 [epigallocatechin gallate]
IC50 [1]: 22.4 µM | IC50 [2]: 1.56 µg/mL (≈ 3.4 µM) | IC50 (mushroom tyrosinase): 14.37 µg/mL (≈ 31.3 µM)
